# “And” between values parts separate entries of the source, which are not always exact repeats. Identical values can stand only once. Like-named read-outs stand apart in the source and are kept apart here.
# Key:
# [1] = target: T1, hDHODH (Met30-Arg396) (Homo sapiens, UniProt Q02127); experiment: hDHODH enzyme inhibition, DCIP assay; type: biochemical; conditions: for LLE: LLE = pIC50 − clogP; for IC50: hDHODH, mean ± SD of three independent experiments, IC50 measured if inhibition rate at 10 μM was larger than 50%; for fold decrease in potency compared with 19: hDHODH IC50 relative to 19
# T1 construct: hDHODH (Met30-Arg396) was expressed and purified in the same manner as described in our recently published work; made in house
# From the text: The plasmid coding for human DHODH was kindly provided by Prof. Jon Clardy (Harvard Medical School)[7]. hDHODH (Met30-Arg396) was expressed and purified in the same manner as described in our recently published work[38]. We determined the effect of benzylidenehydrazinyl-substituted thiazole derivatives to inhibit hDHODH by using a DCIP assay method.
# [2] = target: T1, hDHODH (Met30-Arg396); parameters: method as in PMID 22984987; conditions: from earlier virtual screen; cited from earlier work
# [3] = system: Wistar rats with collagen-induced arthritis (CIA); experiment: collagen-induced arthritis (CIA) rat efficacy study; type: in vivo; conditions: for influence on body weight: i.p. daily for 28 days, versus model group; for arthritis score: day 28, maximum score 8
# Protocol: Compound 19 and methotrexate were injected intraperitoneally once per day for 28 days into the Wistar rats with collagen-induced arthritis (CIA). The swelling scores of the arthritis and morphological observations of the rats’ joint tissues were employed to examine the anti-arthritic effect of compound 19 (Fig. 5). With the onset of arthritis, the swelling scores were an indication of the disease states. The maximum score was 8, which is the sum of the scores from both hind paws of each rat and indicates a severe arthritis state. During the experiment, the control rats had normal eating patterns, shiny hair and continuously increasing body weight.
# Adult male Wistar rats (120–140 g) were purchased from Shanghai SLRC Laboratory animal company and housed in standard pathogen-free cages. The environment was climate-controlled (20–25 °C, 50–60% relative humidity) with a 12-hour light and 12-hour dark cycle as described previously. Sterilized food and water were provided naturally. All procedures involving animals conform to the Chinese government guidelines for animal experiments, and were conducted with approval of the Institutional Animal Care and Use Committee of East China University of Science & Technology. Bovine type II collagen (CII, Chondrex, USA) was emulsified in the same manner as that conducted previously to get the CIA model. Specifically, 49 rats were randomly assigned into five groups: normal control (solvent, i.p., n = 6), CIA model (solvent, i.p., n = 11), Methotrexate-treated (0.3 mg/kg, i.p., n = 10), compound 19-treated (5 mg/kg, i.p., n = 11) and compound 19-treated (30 mg/kg, i.p., n = 11) groups. Methotrexate, reported to has a therapeutic effect on rheumatoid arthritis, was used as the positive control in this study. The main workflows of this experiment were consistent with that reported recently. During the 28 days of the experiment, compound 19 (5 mg/kg and 30 mg/kg) and Methotrexate (0.3 mg/kg) were injected intraperitoneally once every day. At the same time, the normal control group and model group were administered the same amount of solution. The solvent of 19 was made up of 5% DMSO, 45% saline and 50% PEG400.
# In this study, the clinical-mimic arthritis was observed and the severity was assessed by the same criteria as that applied in reference 65: 0, normal, without any swelling; 1, mild swelling; 2, swelling; 3, significant swelling; 4, severe swelling. The maximum score was 8, which was the sum of the scores from both hind paws of each rat. When arthritic signs appeared, the incidence and severity of the arthritis in rats with different treatments were evaluated via arthritis scores recorded every 2 days under blinded conditions. Measurement of body weight was taken every 3 days. All Wistar rats were killed after 28 day’s trails. Pathological detections against the whole knee joints of the rats were conducted using the same method as described previously. Mean ± standard deviation […] was applied to present the data in this study. SPSS was used to evaluate the statistical significance of differences among the groups. P ≤ 0.05 was the threshold to be statistically significant.
# [4] = single dose pharmacokinetic study in rats (IV and PO); conditions: male, Sprague-Dawley, rat, plasma, 1 mg/kg
# Protocol: (§1) Male Sprague-Dawley rats were raised according to the Guide for the Care and Use of Laboratory Animals. […] Heparin sodium was applied as the anticoagulant of the blood samples. Based on the LC/MS/MS quantitative data, pharmacokinetic parameters were analyzed using WinNonlin5.2 with noncompartment model.
# [5] = in vivo; conditions: male, Sprague-Dawley, rat, po, 10 mg/kg
# Protocol: as §1
# [6] = parameters: method as in PMID 16645972; conditions: in patients; cited from earlier work
# T1 sequence (Q02127 29-395): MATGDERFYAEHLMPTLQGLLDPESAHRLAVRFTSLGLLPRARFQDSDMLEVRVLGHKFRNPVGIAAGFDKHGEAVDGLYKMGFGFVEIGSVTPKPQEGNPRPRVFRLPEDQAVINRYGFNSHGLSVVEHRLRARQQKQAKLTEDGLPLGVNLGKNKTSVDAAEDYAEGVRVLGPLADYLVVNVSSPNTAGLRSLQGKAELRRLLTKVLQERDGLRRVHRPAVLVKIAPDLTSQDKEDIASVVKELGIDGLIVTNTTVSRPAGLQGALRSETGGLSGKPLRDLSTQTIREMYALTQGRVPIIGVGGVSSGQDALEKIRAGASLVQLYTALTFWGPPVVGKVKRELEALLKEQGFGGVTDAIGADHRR
SMILES,LLE [1],IC50 [1],inhibition of hDHODH (in words) [1],further results
Oc1ccccc1/C=N/Nc1nc(-c2ccccc2)cs1 [Compound 8],<0.17,> 10000 nM,–,–
"O=C(O)c1ccc(/C=N/Nc2nc(-c3ccccc3Cl)cs2)cc1 [Compound 21, (E)-4-((2-(4-(2-chlorophenyl)thiazol-2-yl)hydrazono)methyl)benzoic acid]",<0.28,> 10000 nM,loss of activity,–
"NC(=O)c1cccc(-c2csc(N/N=C/c3ccccc3C(=O)O)n2)c1 [Compound 28, (E)-2-((2-(4-(3-carbamoylphenyl)thiazol-2-yl)hydrazono)methyl)benzoic acid]",4.38,1175 ± 8.5 nM,sharp decrease in potency,–
"O=C(O)c1ccccc1/C=N/Nc1nc(-c2ccc3ccccc3c2)cs1 [Compound 31, (E)-2-((2-(4-(naphthalen-2-yl)thiazol-2-yl)hydrazono)methyl)benzoic acid]",1.43,573 ± 21.6 nM,moderate inhibitory activity,–
Brc1ccc(-c2csc(N/N=C/c3ccco3)n2)cc1 [Compound 13],<0,> 10000 nM,–,–
Cc1sc(N/N=C/c2cc([N+](=O)[O-])ccc2O)nc1-c1ccccc1 [Compound 14],<−0.48,> 10000 nM,–,–
"O=C(O)c1ccccc1/C=N/Nc1nc(-c2ccc(-c3ccccc3)cc2)cs1 [Compound 32, (E)-2-((2-(4-([1,1′-biphenyl]-4-yl)thiazol-2-yl)hydrazono)methyl)benzoic acid]",<−0.04,> 10000 nM,loss of activity,–
"O=C(O)c1c(F)cccc1/C=N/Nc1nc(-c2ccccc2Cl)cs1 [Compound 24, (E)-2-((2-(4-(2-chlorophenyl)thiazol-2-yl)hydrazono)methyl)-6-fluorobenzoic acid]",2.66,234 ± 6.8 nM,–,fold decrease in potency compared with 19 [1]: 7 fold
O=Cc1ccccc1/C=N/Nc1nc(-c2ccccc2)cs1 [Compound 7],2.92,365 ± 0.6 nM,–,IC50 [2]: 365 nM
"CN(Cc1cnc2nc(N)nc(N)c2n1)c1ccc(C(=O)N[C@@H](CCC(=O)O)C(=O)O)cc1 [methotrexate, reference compound]",–,–,–,influence on body weight [3]: no obvious influence on increase in body weight
"O=C(O)c1ccccc1/C=N/Nc1nc(-c2ccccc2)cs1 [Compound 26, (E)-2-((2-(4-phenylthiazol-2-yl)hydrazono)methyl)benzoic acid]",3.12,183 ± 3.1 nM,slight decrease in activity,–
"O=C(O)c1cccc(/C=N/Nc2nc(-c3ccccc3Cl)cs2)c1 [Compound 20, (E)-3-((2-(4-(2-chlorophenyl)thiazol-2-yl)hydrazono)methyl)benzoic acid]",<0.34,> 10000 nM,loss of activity,–
Oc1c(Cl)cc(Cl)cc1/C=N/Nc1nc(-c2ccc(Cl)cc2Cl)cs1 [Compound 10],<−2.53,> 10000 nM,–,–
"Cc1ccc(-c2csc(N/N=C/c3ccccc3C(=O)O)n2)cc1 [Compound 29, (E)-2-((2-(4-(p-tolyl)thiazol-2-yl)hydrazono)methyl)benzoic acid]",2.64,155 ± 6.8 nM,–,–
"Cc1sc(N/N=C/c2ccccc2O)nc1-c1ccccc1 [Compound 15, (E)-2-((2-(5-methyl-4-phenylthiazol-2-yl)hydrazono)methyl)phenol]",0.48,2437 ± 22.9 nM,moderate inhibition,–
"CC(C)c1ccc(-c2csc(N/N=C/c3ccccc3O)n2)cc1 [Compound 16, (E)-2-((2-(4-(4-isopropylphenyl)thiazol-2-yl)hydrazono)methyl)phenol]",<−1.23,> 10000 nM,–,–
"O=C(O)c1ccccc1/C=N/Nc1nc(-c2cc(Cl)ccc2Cl)cs1 [Compound 30, (E)-2-((2-(4-(2,5-dichlorophenyl)thiazol-2-yl)hydrazono)methyl)benzoic acid]",2.88,43 nM and 43.1 nM,IC50 values in the double-digit nanomolar range,–
"COc1cccc(-c2csc(N/N=C/c3ccccc3C(=O)O)n2)c1 [Compound 27, (E)-2-((2-(4-(3-methoxyphenyl)thiazol-2-yl)hydrazono)methyl)benzoic acid]",3.52,175 ± 1.8 nM,–,–
"Nc1cccc(C(=O)O)c1/C=N/Nc1nc(-c2ccccc2Cl)cs1 [Compound 25, (E)-3-amino-2-((2-(4-(2-chlorophenyl)thiazol-2-yl)hydrazono)methyl)benzoic acid]",<1.22,> 10000 nM,sharp decrease in inhibitory activity,–
"O=C(O)c1ccccc1/C=N/Nc1nc(-c2ccccc2Cl)cs1 [Compound 19, (E)-2-((2-(4-(2-chlorophenyl)thiazol-2-yl)hydrazono)methyl)benzoic acid]",3.59,32 nM and 32.2 nM,IC50 values in the double-digit nanomolar range,"half-life [4]: 9.69 ± 3.15 h; fold increase in potency compared to 18 ([1]; hDHODH IC50 relative to hydroxy-substituted derivative 18): 43 fold; arthritis score ([3]; 5 mg/kg i.p. daily): around 5; arthritis score ([3]; 30 mg/kg i.p. daily): ~3; anti-arthritic effect (in words) ([3]; 5 and 30 mg/kg i.p. daily for 28 days): significant dose-dependent anti-arthritic effect; histological changes in joint tissues (H&E) ([3]; both dosages, compared to CIA rats): evidently alleviated; influence on body weight [3]: no obvious influence on increase in body weight; Cmax [5]: 5310 ± 1910 ng/mL"
Oc1c(Cl)cc(Cl)cc1/C=N/Nc1nc(-c2ccccc2)cs1 [Compound 9],<−1.58,> 10000 nM,–,–
"Oc1ccccc1/C=N/Nc1nc(-c2ccccc2Cl)cs1 [Compound 18, (E)-2-((2-(4-(2-chlorophenyl)thiazol-2-yl)hydrazono)methyl)phenol]",0.76,1390 ± 38 nM,moderate inhibition,–
Brc1ccc(-c2csc(N/N=C/c3ccccc3)n2)cc1 [Compound 12],<−0.42,> 10000 nM,–,–
"Oc1ccccc1/C=N/Nc1nc(-c2ccc(Cl)c(Cl)c2)cs1 [Compound 17, (E)-2-((2-(4-(3,4-dichlorophenyl)thiazol-2-yl)hydrazono)methyl)phenol]",<−1.03,> 10000 nM,–,–
"CCOC(=O)c1ccccc1/C=N/Nc1nc(-c2ccccc2Cl)cs1 [Compound 23, (E)-ethyl 2-((2-(4-(2-chlorophenyl)thiazol-2-yl)hydrazono)methyl)benzoate]",0.75,1870 ± 30 nM,–,fold decrease in potency compared with 19 [1]: 58 fold
C/C(=N\Nc1nc(-c2ccc(Br)cc2)cs1)c1ccccc1O [Compound 11],<−0.81,> 10000 nM,–,–
"Cc1oncc1C(=O)Nc1ccc(C(F)(F)F)cc1 [Leflunomide, leflunomide]",–,–,–,half-life [6]: approximately two
"COC(=O)c1ccccc1/C=N/Nc1nc(-c2ccccc2Cl)cs1 [Compound 22, (E)-methyl 2-((2-(4-(2-chlorophenyl)thiazol-2-yl)hydrazono)methyl)benzoate]",1.02,3270 ± 67.8 nM,–,fold decrease in potency compared with 19 [1]: 101 fold

# — article PMC4595849, “Rational Design of Benzylidenehydrazinyl-Substituted Thiazole Derivatives as Potent Inhibitors of Human Dihydroorotate Dehydrogenase with in Vivo Anti-arthritic Activity” (Scientific Reports, 2015)
